According to patent US7985586B2, “Oligodendrocyte precursor cell composition and methods of use” (Georgia Health Sciences University, priority 2008, dated 2011):
“Also recorded” adds a separate entry of the source.

Tests used:
[1] = cited from earlier work
[2] = tested on: oligodendrocyte precursors (ODPCs) from EB-derived cells; assay: Generation of iODPCs from EB-derived cells treated with S18 and S1P or S1P analogs; assay type: cell-based, mouse; settings: for effect on the number of ODPCs / ODPCs [% of total cells]: S1P 1 μM, VPC24191 or SEW2871 300 nM, FTY720 300 nM; for increase of the number of oligodendrocyte precursors (ODPCs): in vitro, combination with S18; for ODPCs [% of total cells]: in combination with S18, n=4 independent experiments
Method: Pre-implantation blastocyst-derived ES cells (ES-J1, Rosa26, E14) were grown on γ-irradiated feeder fibroblasts, and neural differentiation was induced by serum deprivation of EBs as previously described. Attached EBs were dissociated and EB-derived cells (EBCs) plated on polyornithin/laminin-coated dishes. At this stage, cells were grown in DMEM/F12 supplemented with N2 and FGF-2 (EB medium). EBCs acquire all characteristics of genuine NPCs, including expression of nestin. Sox1, and FGFR1. In the presence of FGF-2, NPCs can be dissociated and propagated at >80% homogeneity.
(§1) This protocol was modified using S18 or S1P (or its analogs) for incubation of differentiating ES cells at the EB stage prior to and after dissociation. After incubation with 50-100 μM S18 and/or 0.1-2 μM S1P or S1P analogs for 48 h, EBCs were dissociated and then immediately re-plated, and further incubated with NP medium supplemented with 50-100 μM S18 and 0.1-2 μM S1P or S1P analogs. NPCs were either transplanted into brain or spinal cord or in vitro differentiated in differentiation medium.
For incubation with S18 and S1P (or S1P) analogs add: 50-100 μM S18; 0.1-2 μM S1P or S1P analogs (FTY720, SEW2871, VPC24191 or related compounds) to EB and NP medium. The incubation time can vary from 24-72 h.
(§2) In vitro, treatment with a combination of S18 and S1P or S1P analogs (FTY720, VPC24191, SEW2871) increases the number of oligodendrocyte precursors (ODPCs) by about 20-fold (Table 1). […] This observation was unexpected and novel, because it has not been shown before that combined treatment with S18 and S1P analogs can enrich for ODPCs.

[3] = tested on: EB-derived cells (EBCs); assay: S18-induced apoptosis / elimination of EB-derived cell sub-populations and protection by S1P analogs; assay type: cell-based, mouse; settings: for protection of S18-sensitive NPCs (NPC2) from apoptosis: added to medium with S18
Method: FIG. 4 illustrates making sphingolipid-enhanced neural stem cells (SENSe). FIG. 4A illustrates that mouse ES cells were differentiated to the attached EB stage and immunocytochemistry performed using antibodies against Oct-4 and S1P1. NPC2 cells show Oct-4(−) and S1P1(+). […] Expression of S1P1 protects them from S18-induced apoptosis if S1P or its analogs are added to the medium. FIG. 4B provides that there are three sub-populations of EB-derived cells (EBCs): 1) Residual pluripotent (Oct-4(+)/PAR-4(+)/S1P1(−) cells. […] They are not protected by S1P1; 2) NPC1 cells are Oct-4(−)/PAR-4(−)/S1P1(+) and represent nestin-expressing neural progenitors. […] FIG. 4C illustrates that NPC2 cells are stained for A2B5 epitope, a marker for oligodendrocyte precursor cells.
as §1, §2

[4] = tested on: EB-derived cells (EBCs); settings: stage of forming NPCs; ref [5]; cited from earlier work
[5] = tested on: primitive ectoderm cells; settings: suspension EBs; ref [3]; cited from earlier work

CCCCCCCCCCCCC/C=C/[C@@H](O)[C@H](CO)NC(C)=O [C2 ceramide, N-acetyl sphingosine]
water solubility compared with physiological ceramide species (e.g. C16 ceramide) [1]: several-fold higher

CCCCCCCCc1ccc(CCC(N)(CO)CO)cc1 [FTY720, 2-amino-2-[2-(4-octylphenyl)ethyl]propane-1,3-diol]
effect on the number of ODPCs [2]: elevate the number of ODPCs | increase of the number of oligodendrocyte precursors (ODPCs) [2]: about 20 fold | protection of S18-sensitive NPCs (NPC2) from apoptosis [3]: rescue S18-sensitive NPCs from apoptosis; also recorded: can be protected

CCCCCCCCCCCCC/C=C/[C@@H](O)[C@@H](N)COP(=O)(O)O [S1P, sphingosine-1-phosphate]
effect on the number of ODPCs [2]: elevate the number of ODPCs | ODPCs [% of total cells] ([2]; VPC23019 2 μM): 12 +/− 3% | increase of the number of oligodendrocyte precursors (ODPCs) [2]: about 20 fold | protection of S18-sensitive NPCs (NPC2) from apoptosis [3]: rescue S18-sensitive NPCs from apoptosis; also recorded: can be protected

CCCCCCCC/C=C\CCCCCCCC(=O)NC(CO)CO [S18, N-(2-hydroxy-1-(hydroxymethyl)ethyl)-oleoylamide]
S18-induced apoptosis in NPC1 (Oct-4(−)/PAR-4(−)/S1P1(+)) cells [3]: do not undergo S18-induced apoptosis | elimination of teratoma-forming residual pluripotent (Oct-4(+)/PAR-4(+)/S1P1(−)) cells ([3]; ES cell graft / EB-derived cells): specifically eliminate teratoma-forming cells; also recorded: are eliminated by S18 | elimination of NPC2 (Oct-4(−)/PAR-4(+)/S1P1(+)) cells ([3]; without S1P or FTY720): is also eliminated by S18; also recorded: are eliminated by S18 | elimination of Oct-4(+) cells from differentiating ES cells [4]: eliminates Oct-4(+) cells | primitive ectoderm formation after ceramide depletion [5]: restores primitive ectoderm formation

FC(F)(F)c1cccc(-c2noc(-c3cc(-c4ccccc4)c(C(F)(F)F)s3)n2)c1 [SEW2871]
effect on the number of ODPCs [2]: elevate the number of ODPCs | ODPCs [% of total cells] ([2]; VPC23019 2 μM): 18 +/− 3% | increase of the number of oligodendrocyte precursors (ODPCs) [2]: about 20 fold

CCCCCCCCc1cccc(NC(=O)[C@H](N)COP(=O)(O)O)c1 [VPC23019]
effect of S1P1 antagonist on the S1P and FTY720 effect ([2]; VPC23019 2 μM): inhibits the effect of S1P and FTY720

CCCCCCCCc1ccc(NC[C@H](N)COP(=O)(O)O)cc1 [VPC24191]
effect on the number of ODPCs [2]: elevate the number of ODPCs | ODPCs [% of total cells] ([2]; VPC23019 2 μM): 28 +/− 5% | increase of the number of oligodendrocyte precursors (ODPCs) [2]: about 20 fold
